According to paper PMC8591608, “DNDI-6148: A Novel Benzoxaborole Preclinical Candidate for the Treatment of Visceral Leishmaniasis” (Journal of Medicinal Chemistry, 2021):

Tests used:
[1] = test system: L. donovani; test: L. donovani hamster model of VL; format: in vivo
Procedure: (§1) L. infantum (MHOM/MA/67/ITMAP263) and L. donovani (MHOM/ET/67/L82) were maintained in the golden (Syrian) hamster (Mesocricetus auratus). Ex vivo amastigotes were collected from the spleen of an infected donor hamster using two centrifugation purification steps: 230g for 10 min, keeping the supernatant layer, and 4100g for 30 min, keeping the pellet. The spleen parasite burden was assessed using the Stauber technique.[25] For in vitro assays, the inoculum was prepared in RPMI-1640 medium, supplemented with 200 mM L-glutamine, 16.5 mM NaHCO3, and 5% inactivated fetal calf serum. For the in vivo model, an infection inoculum containing 2 × 10^7 amastigotes/100 μL was prepared in phosphate-buffered saline (PBS).
(§2) Female golden hamsters for the in vivo model of visceral leishmaniasis were purchased from Janvier, France (body weight 80–100 g). This study using laboratory rodents was carried out in strict accordance with all mandatory guidelines (EU directives, including the Revised Directive 2010/63/EU on the protection of Animals used for Scientific Purposes that came into force on 01/01/2013, and the declaration of Helsinki in its latest version) and was approved by the ethical committee of the University of Antwerp, Belgium (UA-ECD 2011-74). Female golden hamsters for the pharmacokinetic study were purchased from Vital River, Beijing, China. This study was conducted following institutional review and in accordance with institutional and national guidelines at WuXi AppTec (the Institutional Animal Care and Use Committee (IACUC)). Balb/c mice for the in vivo model of visceral leishmaniasis (LSHTM) were purchased from Charles River, U.K., and related studies were conducted under license PPL 70/8427 from the U.K. Home Office.
(§3) Female golden hamsters were randomly allocated to experimental groups of six animals each, based on body weight. At the start of the experiment (Day 0), each animal was infected with L. infantum or L. donovani inoculum, delivered by intracardial injection. Six hamsters were assigned to the vehicle-treated, infected control group. Six hamsters were assigned per group (1 group/compound) for the evaluation of compound and miltefosine. At Day 21 postinfection (21 dpi), all animals in each group were dosed orally for five (or ten) consecutive days (21–25 dpi): compound was dosed at 25–50 mg/kg b.i.d.; miltefosine was dosed at 40 mg/kg q.d. At Day 35 (10 days after the final oral dose), all animals were euthanized and autopsies were conducted. The study evaluated the following parameters. • 1. Adverse effects: all animals were observed daily for the occurrence/presence of adverse effects. • 2. Body weight: all animals were weighed twice per week to monitor general health. • 3. Parasite burden: amastigote burdens in each target organ (liver, spleen, and bone marrow) were determined at Day 35. The organs of individual animals were weighed (except for bone marrow). Impression smears were stained with Giemsa for microscopic examination of the total amastigote burden, defined as the mean number of amastigotes per cell multiplied by the number of cells counted (minimum 500 nuclei); the results were expressed as a percentage reduction in amastigote burden compared to vehicle-treated, infected control animals.

[2] = Human PK and dose prediction by allometric scaling
[3] = MRC5 cytotoxicity assay; format: cell-based; conditions: human, MRC5SV2 cells (human embryonic lung fibroblasts); Table 5; geometric mean of at least two independent tests
How it was run: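 PMM (harvested 2 days after 2% potato starch peritoneal stimulation) or MRC5SV2 human lung fibroblasts at 3 × 10^4 cells/mL were exposed to compound for three days at 37 °C, 5% CO2. Viability was read by resazurin fluorescence (λex 550, λem 590 nm) after 4 h, as % growth reduction vs untreated controls.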

[4] = Liver microsome stability, hamster; format: in vitro ADME; conditions: golden (Syrian), hamster liver microsomes, pH 7.4, Table 5, read-out: HamLM Clint
Procedure: Tests were performed by WuXi AppTec, China. Test compounds (at 1 μM) or positive controls (testosterone, propafenone, and diclofenac) were incubated at 37 °C with liver microsomes from Balb/c mouse, golden (Syrian) hamster, Sprague-Dawley rat, Beagle dog, or human in the presence of a NADPH regenerating system and phosphate buffer (100 mM, pH 7.4) at 0.4 or 0.8 mg/mL microsomal protein. The samples were removed at time intervals from 0 to 60, 90, or 120 min and immediately mixed with cold methanol supplemented or not with acid (3% formic acid) and centrifuged prior to analysis by LC-MS/MS using tolbutamide or propranolol as internal standards.

[5] = test system: L. infantum; test: L. infantum hamster model of VL; format: in vivo; conditions: for reduction in parasite burden, bone marrow, 10 days / reduction in parasite burden, liver, 10 days / reduction in parasite burden, spleen, 10 days: 25 mg/kg BID p.o. for 10 days
Procedure: as §1, §2
as §3, with “At Day 21 postinfection (21 dpi), all animals in each group were dosed orally for five (or ten) consecutive days (21–25 dpi): compound was dosed at 25–50 mg/kg b.i.d.; miltefosine was dosed at 40 mg/kg q.d.” left out

[6] = allometric scaling from rat and dog PK data

Row | Compound | reduction in parasite burden, bone marrow, 5 days ([1]; 50 mg/kg BID for 5 days) [%] | reduction in parasite burden, liver, 5 days ([1]; 50 mg/kg BID for 5 days) [%] | reduction in parasite burden, spleen, 5 days ([1]; 50 mg/kg BID for 5 days) [%] | reduction in parasite burden, bone marrow, 5 days ([5]; 25 mg/kg BID p.o. for 5 days) [%] | reduction in parasite burden, liver, 5 days ([5]; 25 mg/kg BID p.o. for 5 days) [%] | reduction in parasite burden, spleen, 5 days ([5]; 25 mg/kg BID p.o. for 5 days) [%] | reduction in parasite burden, bone marrow, 10 days [5] [%] | reduction in parasite burden, liver, 10 days [5] [%] | reduction in parasite burden, spleen, 10 days [5] [%] | reduction in parasite burden, bone marrow, 5 days ([5]; 50 mg/kg BID p.o. for 5 days) [%] | reduction in parasite burden, liver, 5 days ([5]; 50 mg/kg BID p.o. for 5 days) [%] | reduction in parasite burden, spleen, 5 days ([5]; 50 mg/kg BID p.o. for 5 days) [%] | further results
1 | Cc1c(C(=O)Nc2ccc3c(c2)B(O)OC3)nnn1-c1ccccn1 [Compound 23, N-(1-Hydroxy-1,3-dihydrobenzo[c][1,2]oxaborol-6-yl)-5-methyl-1-(pyridin-2-yl)-1H-1,2,3-triazole-4-carboxamide] | 83.4 | 99.3 | 98.6 | 93.6 | 98.3 | 98.2 | 99.4 | 100 | 99.9 | 99.0 | 99.8 | 99.9 | reduction in parasite burden, bone marrow, 10 days ([1]; 25 mg/kg BID for 10 days): 99.6%; reduction in parasite burden, liver, 10 days ([1]; 25 mg/kg BID for 10 days): 99.9%; reduction in parasite burden, spleen, 10 days ([1]; 25 mg/kg BID for 10 days): 99.8%; predicted efficacious human dose ([2]; BID dosing in humans): 3 to 20 mg/kg; predicted bioavailability in humans [2, 6]: 40–90%; predicted clearance in humans [2, 6]: 1 to 4 mL/min/kg; CC50 at 3 days [3]: > 64 µM; microsomal CLint at 1 μM [4]: < 11.9 µL/min/mg
2 | Cc1c(-c2ccccn2)coc1C(=O)Nc1ccc2c(c1)B(O)OC2 [Compound 28, N-(1-Hydroxy-1,3-dihydrobenzo[c][1,2]oxaborol-6-yl)-3-methyl-4-(pyridin-2-yl)furan-2-carboxamide] | 100 | 99.9 | 100 | 95.7 | 98.9 | 97.8 | 84 | 99.4 | 96.9 | 99.1 | 99.9 | 99.9 | reduction in parasite burden, bone marrow, 5 days ([1]; 25 mg/kg BID for 5 days): 94.5%; reduction in parasite burden, liver, 5 days ([1]; 25 mg/kg BID for 5 days): 95.9%; reduction in parasite burden, spleen, 5 days ([1]; 25 mg/kg BID for 5 days): 95.9%; CC50 at 72 h [3]: 18 µM; microsomal CLint at 2 h, 1 µM [4]: 40 µL/min/mg
